Test results as given in publication PMC6282443 (Journal of Enzyme Inhibition and Medicinal Chemistry, 2018).
Where two headings read alike, the source gives them in different places.

Tests used:
Format in all cases: cell-based, human
MCF-7 cells = test: MTT anti-proliferative assay, MCF-7; conditions: read-out: Anti-proliferative activity IC50, MCF-7
HepG2 cells = test: MTT anti-proliferative assay, HepG2; conditions: read-out: Anti-proliferative activity IC50, HepG2
A549 cells = test: cells; conditions: read-out: Anti-proliferative activity IC50, A549
H1975 cells = conditions: H1975, MTT; for IC50: read-out: Anti-proliferative activity IC50, H1975, 72 h

Compound | IC50 (MCF-7 cells; MCF-7, MTT, 72 h) [µM] | IC50 (HepG2 cells; HepG2, MTT, 72 h) [µM] | IC50 (A549 cells; A549, MTT, 72 h) [µM] | IC50 (H1975 cells) [µM] | inhibitory activity against H1975 cells (in words) (H1975 cells) | IC50 (MCF-7 cells; Homo sapiens, MCF7, 72 h) [µM] | IC50 (HepG2 cells; Homo sapiens, HepG2, 72 h) [µM] | IC50 (A549 cells; Homo sapiens, A549, 72 h) [µM]
(E)-N-(4-((3-chloro-4-fluoropheny)amino)-7-methoxyquinazolin-6-yl)-2-(4-(2-(pyrrolidin-1-yl)ethoxy)benzylid ene)hydrazine-1-carboxamide [Compound 33] | 44.2 ± 3.75 | 46.7 ± 4.46 | 36.4 ± 2.78 | 49.3 ± 4.68 |  |  |  | 
CN(C)CCOc1ccc(/C=N/NC(=O)Nc2cc3c(Nc4ccc(F)c(Cl)c4)ncnc3cc2O[C@H]2CCOC2)cc1 [Compound 37, (S,E)-N-(4-((3-chloro-4-fluoropheny)amino)-7-((tetrahydrofuran-3-yl)oxy)quinazolin-6-yl)-2-(4-(2-(dimethylamino)ethoxy)benzylidene)hydrazine-1-carboxamide] | 11.7 ± 1.34 | 8.2 ± 0.81 | 14.7 ± 1.35 | 10.2 ± 1.12 | moderate inhibitory activity |  |  | 
COc1cc2ncnc(Nc3ccc(F)c(Cl)c3)c2cc1NC(=O)N/N=C/c1ccc(CN2CCCC2)cc1 [Compound 21, (E)-N-(4-((3-chloro-4-fluorophenyl)amino)-7-methoxyquinazolin-6-yl)-2-(4-(pyrrolidin-1-ylmethyl)benzylidene)hydrazine-1-carboxamide] |  |  |  |  | moderate inhibitory activity | 8.9 ± 0.48 | 21.3 ± 1.47 | 17.8 ± 1.22
COc1cc2ncnc(Nc3ccc(F)c(Cl)c3)c2cc1NC(=O)N/N=C/c1ccc(N(C)C)cc1 [Compound 9, (E)-N-(4-((3-chloro-4-fluorophenyl)amino)-7-methoxyquinazolin-6-yl)-2-(4-(dimethylamino)benzylidene)hydrazine-1-carboxamide] |  |  |  |  | poorer cellular activity | 2.63 ± 0.16 | 0.72 ± 0.19 | 2.84 ± 0.22
CCN(CC)Cc1ccc(/C=N/NC(=O)Nc2cc3c(Nc4ccc(F)c(Cl)c4)ncnc3cc2OC)cc1 [Compound 20, (E)-N-(4-((3-chloro-4-fluorophenyl)amino)-7-methoxyquinazolin-6-yl)-2-(4-((diethylamino)methyl)benzylidene)hydrazine-1-carboxamide] |  |  |  |  | poorer cellular activity | 4.14 ± 0.57 | 9.49 ± 0.47 | 8.71 ± 0.54
CCN(CC)c1ccc(/C=N/NC(=O)Nc2cc3c(Nc4ccc(F)c(Cl)c4)ncnc3cc2O[C@H]2CCOC2)cc1 [Compound 12, (S,E)-N-(4-((3-chloro-4-fluorophenyl)amino)-7-((tetrahydrofuran-3-yl)oxy)quinazolin-6-yl)-2-(4-(diethylamino)benzylidene)hydrazine-1-carboxamide] |  |  |  |  | moderate inhibitory activity | 0.35 ± 0.09 | 0.31 ± 0.13 | 0.28 ± 0.12
COc1cc2ncnc(Nc3ccc(F)c(Cl)c3)c2cc1NC(=O)N/N=C/c1ccc(OCCCN2CCOCC2)cc1 [Compound 47, (E)-N-(4-((3-chloro-4-fluoropheny)amino)-7-methoxyquinazolin-6-yl)-2-(4-(3-morpholinopropoxy)benzylidene)hydrazine-1-carboxamide] | 27.5 ± 1.29 | 28.4 ± 1.78 | 34.8 ± 1.26 | 41.2 ± 2.07 |  |  |  | 
O=C(N/N=C/c1ccc(OCCN2CCCCC2)cc1)Nc1cc2c(Nc3ccc(F)c(Cl)c3)ncnc2cc1O[C@H]1CCOC1 [Compound 40, (S,E)-N-(4-((3-chloro-4-fluoropheny)amino)-7-((tetrahydrofuran-3-yl)oxy)quinazolin-6-yl)-2-(4-(2-(piperidin-1-yl)ethoxy)benzylidene)hydrazine-1-carboxamide] | 24.2 ± 1.23 | 17.4 ± 1.24 | 24.2 ± 1.24 | 35.3 ± 2.35 |  |  |  | 
CN(C)c1ccc(/C=N/NC(=O)Nc2cc3c(Nc4ccc(F)c(Cl)c4)ncnc3cc2O[C@H]2CCOC2)cc1 [Compound 10, (S,E)-N-(4-((3-chloro-4-fluorophenyl)amino)-7-((tetrahydrofuran-3-yl)oxy)quinazolin-6-yl)-2-(4-(dimethylamino)benzylidene)hydrazine-1-carboxamide] |  |  |  |  | moderate inhibitory activity | 0.61 ± 0.12 | 0.14 ± 0.08 | 1.51 ± 0.13
(E)-N-(4-((3-chloro-4-fluoropheny)amino)-7-methoxyquinazolin-6-yl)-2-(4-(3-(dimethylamino)propoxy)benzyl idene)hydrazine-1-carboxamide [Compound 43] | > 100 | > 100 | 43.1 ± 3.34 | > 100 |  |  |  | 
(S,E)-N-(4-((3-chloro-4-fluoropheny)amino)-7-((tetrahydrofuran-3-yl)oxy)quinazolin-6-yl)-2-(4-(2-(4-methylpi perazin-1-yl)ethoxy)benzylidene)hydrazine-1-carboxamide [Compound 42] | 10.8 ± 0.68 | 13.4 ± 0.54 | 2.52 ± 0.54 | 11.2 ± 1.34 | moderate inhibitory activity |  |  | 
(S,E)-N-(4-((3-chloro-4-fluoropheny)amino)-7-((tetrahydrofuran-3-yl)oxy)quinazolin-6-yl)-2-(4-(2-(diethylamin o)ethoxy)benzylidene)hydrazine-1-carboxamide [Compound 38] | 1.99 ± 0.68 | 1.91 ± 0.34 | 3.01 ± 0.54 | > 100 | poorer cellular activity |  |  | 
COc1cc2ncnc(Nc3ccc(F)c(Cl)c3)c2cc1NC(=O)N/N=C/c1ccc(CN2CCN(C)CC2)cc1 [Compound 24, (E)-N-(4-((3-chloro-4-fluorophenyl)amino)-7-methoxyquinazolin-6-yl)-2-(4-((4-methylpiperazin-1-yl)methyl)benzylidene)hydrazine-1-carboxamide] |  |  |  |  | moderate inhibitory activity | 3.12 ± 0.38 | 2.86 ± 0.13 | 4.32 ± 0.61
O=C(N/N=C/c1ncc(N2CCOCC2)s1)Nc1cc2c(Nc3ccc(F)c(Cl)c3)ncnc2cc1O[C@H]1CCOC1 [Compound 13, (S,E)-N-(4-((3-chloro-4-fluorophenyl)amino)-7-((tetrahydrofuran-3-yl)oxy)quinazolin-6-yl)-2-((5-morpholinothiazol-2-yl)methylene)hydrazine-1-carboxamide] |  |  |  |  | moderate inhibitory activity | 1.35 ± 0.14 | 1.35 ± 0.31 | 1.48 ± 0.19
O=C(N/N=C/c1ccc(OCCN2CCCC2)cc1)Nc1cc2c(Nc3ccc(F)c(Cl)c3)ncnc2cc1O[C@H]1CCOC1 [Compound 39, (S,E)-N-(4-((3-chloro-4-fluoropheny)amino)-7-((tetrahydrofuran-3-yl)oxy)quinazolin-6-yl)-2-(4-(2-(pyrrolidin-1-yl)ethoxy)benzylidene)hydrazine-1-carboxamide] | 64.8 ± 5.35 | 67.3 ± 6.24 | 63.9 ± 5.35 | > 100 |  |  |  | 
COc1cc2ncnc(Nc3ccc(F)c(Cl)c3)c2cc1NC(=O)N/N=C/c1ccc(OCCN2CCN(C)CC2)cc1 [Compound 36, (E)-N-(4-((3-chloro-4-fluoropheny)amino)-7-methoxyquinazolin-6-yl)-2-(4-(2-(4-methylpiperazin-1-yl)ethoxy)benzylidene)hydrazine-1-carboxamide] | 6.2 ± 0.81 | 10.2 ± 1.09 | 11.4 ± 1.07 | 24.7 ± 1.86 | poorer cellular activity |  |  | 
COc1cc2ncnc(Nc3ccc(Cl)c(F)c3)c2cc1NC(=O)N/N=C/c1ccc(OCCN2CCOCC2)cc1 [Compound 35, (E)-N-(4-((4-chloro-3-fluorophenyl)amino)-7-methoxyquinazolin-6-yl)-2-(4-(2-morpholinoethoxy)benzylidene) hydrazine-1-carboxamide] | 21.8 ± 1.34 | 16.5 ± 1.42 | 19.5 ± 1.35 | 25.2 ± 1.35 |  |  |  | 
COc1cc2ncnc(Nc3ccc(F)c(Cl)c3)c2cc1NC(=O)N/N=C/c1ccc(OCCN(C)C)cc1 [Compound 31, (E)-N-(4-((3-chloro-4-fluoropheny)amino)-7-methoxyquinazolin-6-yl)-2-(4-(2-(dimethylamino)ethoxy)benzylidene)hydrazine-1-carboxamide] | 37.2 ± 2.89 | 36.3 ± 2.57 | 40.1 ± 4.03 | 45.3 ± 3.34 |  |  |  | 
COc1cc2ncnc(Nc3ccc(F)c(Cl)c3)c2cc1NC(=O)N/N=C/c1ccc(OCCN2CCCCC2)cc1 [Compound 34, (E)-N-(4-((3-chloro-4-fluoropheny)amino)-7-methoxyquinazolin-6-yl)-2-(4-(2-(piperidin-1-yl)ethoxy)benzylidene)hydrazine-1-carboxamide] | 9.21 ± 1.16 | 12.7 ± 1.25 | 10.8 ± 1.43 | 61.6 ± 5.67 | poorer cellular activity |  |  | 
CN(C)Cc1ccc(/C=N/NC(=O)Nc2cc3c(Nc4ccc(F)c(Cl)c4)ncnc3cc2O[C@H]2CCOC2)cc1 [Compound 25, (S,E)-N-(4-((3-chloro-4-fluorophenyl)amino)-7-((tetrahydrofuran-3-yl)oxy)quinazolin-6-yl)-2-(4-((dimethylamino)methyl)benzylidene)hydrazine-1-carboxamide] |  |  |  |  | poorer cellular activity | 4.41 ± 0.28 | 3.76 ± 0.21 | 4.13 ± 0.54
CN(C)c1ccc(/C=N/NC(=O)Nc2cc3c(Nc4ccc(F)c(Cl)c4)ncnc3cc2O[C@H]2CCOC2)s1 [Compound 16, (S,E)-N-(4-((3-chloro-4-fluorophenyl)amino)-7-((tetrahydrofuran-3-yl)oxy)quinazolin-6-yl)-2-((5-(dimethylamino)thiophen-2-yl)methylene)hydrazine-1-carboxamide] |  |  |  |  | poorer cellular activity | 3.68 ± 0.49 | 2.43 ± 0.45 | 2.5 ± 0.36
